Reference: a melting point compilation (Tetko et al.)

`O=c1cc(CO)nc2ccc(Br)cn12` gave a melting point of 204 to 206 °C. Work on `COc1ccc(N2C(=O)CCC(C(=O)O)C2c2ccccc2OC)cc1` (stereo not drawn) yielded a melting point of 205 to 208 °C. With `O=c1c(Cl)c(Cl)c1=O` the melting point was 49 to 51 °C. `O=Cc1cnc2ccccn12` gave a melting point of 118 to 120 °C. `CC(C)Oc1cccnc1C(=O)O` gave a melting point of 199 to 201 °C. In the case of `Cc1cc(N)n(-c2ccc(F)cc2)n1`, the melting point is reported as 109 to 111 °C. For `Cc1nc(O)c2c(n1)CCCC2`, the melting point was 206 to 208 °C. For `CC(C)C(Br)C(=O)NC1CCCCC1` (stereo not drawn), the melting point was 116 to 118 °C. `O=C(O)c1cnc2sccn2c1=O` gave a melting point of 269 to 271 °C. In the case of `N#CC(C(=O)CCl)=C1Nc2ccccc2N1`, the melting point is reported as 285 to 287 °C. For `CC(C(=O)O)S(C)(=O)=O` (stereo not drawn), the melting point was 86 to 88 °C. `O=C(O)c1cccnc1SC(F)(F)F` gave a melting point of 162 to 164 °C. `Cc1nn(Cc2cccc(Br)c2)cc1C(=O)O` showed a melting point of 164 to 166 °C. In the case of `CSc1nc2[nH]cnc(=O)c2s1`, the melting point is reported as 269 to 271 °C. `CC1C(C(F)(F)F)OC(=O)N1c1ncccc1N` (stereo not drawn) gave a melting point of 62 to 64 °C. `Clc1nc(-c2ccsc2)nc2sc3c(c12)CCCC3` showed a melting point of 148 to 150 °C. Molecule `CC(C)Nc1ccccn1` has a melting point of 41 to 43 °C. For `CS(=O)(=O)NCC(=O)O`, the melting point was 174 to 176 °C. In the case of `Cc1cc(Cl)c2cc(Br)cc(C)c2n1`, the melting point is reported as 134 to 136 °C. In the case of `Cn1nnnc1-c1cccc(S(N)(=O)=O)c1`, the melting point is reported as 168 to 170 °C. Work on `Cc1cc(C#N)ccc1CO` yielded a melting point of 66 to 68 °C. Work on `CC(C)(C)OC(=O)NC1(CN)CCCCCC1` yielded a melting point of 77 to 79 °C. `O=C(C=NO)Nc1ccc2c(c1)OCCO2` showed a melting point of 130 to 132 °C. For `N#Cc1cccc(OCc2cccc(C(=O)O)c2)c1`, the melting point was 179 to 181 °C. `N#CC(NC(=O)c1ccccc1)C1CC1` (stereo not drawn) showed a melting point of 91 to 93 °C. In the case of `O=C(O)C1CCS(=O)(=O)CC1`, the melting point is reported as 184 to 186 °C. With `COc1ccc2c(-c3ccccc3)cc(S)nc2c1` the melting point was 180 to 182 °C. Molecule `NC(=O)c1ccccc1OCCC(=O)O` has a melting point of 174 to 176 °C. `NC(=S)c1cnc2ccccn12` showed a melting point of 214 to 216 °C. With `Nc1cc(S(N)(=O)=O)ccc1F` the melting point was 134 to 136 °C. Molecule `COC(=O)c1ccc(C(=O)OC)c(S(=O)(=O)Cl)c1` has a melting point of 63 to 67 °C. In the case of `CCn1c2ccccc2c2cc(/C=C/C(=O)O)ccc21`, the melting point is reported as 243 to 245 °C. Molecule `CCOc1cc(Br)c(CC#N)cc1OCC` has a melting point of 68 to 70 °C. `O=C1CCC(Cc2ccc(Cl)cc2)C(=O)N1` (stereo not drawn) showed a melting point of 150 to 152 °C. In the case of `CCc1nc2ccccc2n1C1CCNCC1`, the melting point is reported as 99 to 101 °C. `Nc1ccccc1N1CCC(O)CC1` showed a melting point of 117 to 119 °C. Work on `CC(=O)NC(C)c1ccc(C(=O)CCl)cc1` (stereo not drawn) yielded a melting point of 152 to 156 °C. `Nc1ccc(Oc2ccccc2)cn1` gave a melting point of 67 to 69 °C. `NC(=O)NC1CCCC1` gave a melting point of 192 to 194 °C. Molecule `Clc1ccc(N2CCOCC2)nn1` has a melting point of 131 to 133 °C. `O=C(Nc1ccco1)OCC(F)(F)F` showed a melting point of 78 to 80 °C. In the case of `Nc1nc2ccccc2n1CCCn1ccnc1`, the melting point is reported as 178 to 180 °C. Molecule `O=C(O)c1ccc(Cl)o1` has a melting point of 180 to 182 °C. For `CC(C)Oc1ccc(Cl)c(C(=O)O)n1`, the melting point was 70 to 72 °C. With `Cc1nn(-c2ccccc2)c(C)c1NC(=O)CCl` the melting point was 149 to 151 °C. For `NC(=O)c1ccc(N)nn1`, the melting point was 256 to 258 °C. With `CCc1nn(C)c(Cl)c1C(=O)O` the melting point was 139 to 141 °C. In the case of `C=CCc1cc(C=O)cc(OC)c1O`, the melting point is reported as 80 to 82 °C. `Nc1ccc(-c2c3c(=O)[nH][nH]c(=O)c3c3n2CCC3)cc1` gave a melting point of 309 to 311 °C. For `O=C(O)CNC(=O)NCc1ccco1`, the melting point was 159 to 161 °C. `CCC(C)NC(=O)CN1CCNCC1` (stereo not drawn) showed a melting point of 55 to 57 °C. Work on `O=C(O)c1ccc(Nc2ccccc2)c([N+](=O)[O-])c1` yielded a melting point of 250 to 252 °C. For `CC1CN(c2ccc(C(=O)O)cn2)CC(C)O1` (stereo not drawn), the melting point was 219 to 221 °C. With `N#Cc1ccnc(S)c1` the melting point was 227 to 229 °C. Work on `CC(Oc1ccc(C(=O)O)cn1)c1ccccc1` (stereo not drawn) yielded a melting point of 113 to 115 °C. In the case of `O=C(O)CCc1ccc2c(c1)CCO2`, the melting point is reported as 92 to 94 °C. In the case of `Cc1ccc(-n2cnnn2)cc1NC(=O)OCC(F)(F)F`, the melting point is reported as 199 to 201 °C. In the case of `COc1cccc(OC)c1CO`, the melting point is reported as 53 to 55 °C. For `CC(C)C(Cl)C(=O)O` (stereo not drawn), the melting point was 33 to 35 °C. With `O=C(O)C1CCOc2ccccc21` (stereo not drawn) the melting point was 87 to 89 °C. For `O=C(CCl)NCc1ccccc1OC(F)(F)F`, the melting point was 66 to 68 °C. With `O=C(O)c1ccc(Cl)c(N2CCNC2=O)c1` the melting point was 290 to 292 °C. In the case of `CCC1(O)CCC(N)CC1` (stereo not drawn), the melting point is reported as 79 to 81 °C. For `Cc1noc(-c2ccc([N+](=O)[O-])c(C)c2)n1`, the melting point was 132 to 134 °C. Work on `NS(=O)(=O)CCc1ccc([N+](=O)[O-])cc1` yielded a melting point of 118 to 120 °C. Molecule `CC(=O)c1ccc(OC(C)C)cc1` has a melting point of 42 to 44 °C. Molecule `O=S(=O)(Cl)c1ncn[nH]1` has a melting point of 58 to 60 °C. With `O=Cc1ccc2cn[nH]c2c1` the melting point was 179 to 181 °C. `Cc1nc(S)c(C(N)=O)c(C)c1C` gave a melting point of 294 to 296 °C. `Cc1ccc([N+](=O)[O-])cc1S(=O)(=O)Nc1ccccc1C(=O)O` gave a melting point of 290 to 292 °C. With `CCOC(=O)c1c(-c2ccc(C)o2)csc1N` the melting point was 93 to 95 °C. Work on `CCc1nnnn1-c1ccccc1N` yielded a melting point of 107 to 109 °C. Work on `O=[N+]([O-])c1ccc(Oc2ccc([N+](=O)[O-])cc2)cc1` yielded a melting point of 144 to 146 °C.
